Experimental data reported in PubChem BioAssay (NCI).
Several values for one entry are separate records, joined by “and”; a condition that tells them apart may be missing. Equal values may be shown once.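 All cell lines were grown in 96-well plates and treated with compound for 48 hours. Abbreviation: GI50, concentration required for 50% inhibition of growth. At the TGI there is no net growth.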

What was measured:
Assay in all cases: NCI anticancer screen, dose series, 48 h
[1] = system: MALME-3M melanoma
[2] = system: MDA-MB-231 breast
[3] = system: BT-549 breast
[4] = system: M14 melanoma
[5] = system: HL-60(TB) leukemia
[6] = system: HCT-116 colon
[7] = system: SK-MEL-5 melanoma
[8] = system: HOP-92 NSCLC
[9] = system: KM12 colon
[10] = system: UACC-257 melanoma
[11] = system: OVCAR-4 ovarian
[12] = system: OVCAR-5 ovarian
[13] = system: UACC-62 melanoma
[14] = system: SK-MEL-28 melanoma
[15] = system: MOLT-4 leukemia
[16] = system: HT29 colon
[17] = system: HCT-15 colon
[18] = system: 786-0 renal
[19] = system: SR leukemia
[20] = system: A498 renal
[21] = system: HOP-62 NSCLC
[22] = system: MDA-MB-435
[23] = system: RXF 393 renal
[24] = system: A549 NSCLC
[25] = system: T-47D breast
[26] = system: U251 CNS
[27] = system: TK-10 renal
[28] = system: SF-539 CNS
[29] = system: IGROV1 ovarian
[30] = system: SK-MEL-2 melanoma
[31] = system: NCI/ADR-RES ovarian
[32] = system: NCI-H23 lung
[33] = system: SK-OV-3 ovarian
[34] = system: COLO 205 colon
[35] = system: HS 578T breast
[36] = system: CCRF-CEM leukemia
[37] = system: K-562 leukemia
[38] = system: SW-620 colon
[39] = system: NCI-H460 lung
[40] = system: SNB-19 CNS
[41] = system: HCC-2998 colon
[42] = system: CAKI-1 renal
[43] = system: SF-295 CNS
[44] = system: LOX IMVI melanoma
[45] = system: DU-145 prostate
[46] = system: ACHN renal
[47] = system: OVCAR-3 ovarian
[48] = system: NCI-H226 lung
[49] = system: UO-31 renal
[50] = system: SF-268 CNS
[51] = system: PC-3 prostate
[52] = system: MCF7 breast
[53] = system: OVCAR-8 ovarian
[54] = system: SNB-75 CNS
[55] = system: SN12C renal
[56] = system: NCI-H522 lung
[57] = system: RPMI-8226 leukemia
[58] = system: EKVX NSCLC

`Nc1c(C(=O)c2cccc(C(O)(CO)CO)c2)cnn1-c1ccc(F)cc1` was tested, and the GI50 [1] was greater than 25000 nM, the TGI [1] was greater than 25000 nM and the GI50 [2] was greater than 25000 nM. For the same compound, the TGI [2] was greater than 25000 nM, the GI50 [3] was greater than 25000 nM and the TGI [3] was greater than 25000 nM. The GI50 [4] was greater than 25000 nM, the TGI [4] was greater than 25000 nM and the GI50 [5] was greater than 25000 nM. The TGI [5] was greater than 25000 nM, the GI50 [6] was greater than 25000 nM and the TGI [6] was greater than 25000 nM. The GI50 [7] was greater than 25000 nM, the TGI [7] was greater than 25000 nM and the GI50 [8] was greater than 25000 nM. For the same compound, the TGI [8] was greater than 25000 nM, the GI50 [9] was greater than 25000 nM and the TGI [9] was greater than 25000 nM. The GI50 [10] was greater than 25000 nM, the TGI [10] was greater than 25000 nM and the GI50 [11] was greater than 25000 nM. For the same compound, the TGI [11] was greater than 25000 nM, the GI50 [12] was greater than 25000 nM and the TGI [12] was greater than 25000 nM. For the same compound, the GI50 [13] was greater than 25000 nM, the TGI [13] was greater than 25000 nM and the GI50 [14] was greater than 25000 nM. For the same compound, the TGI [14] was greater than 25000 nM, the GI50 [15] was greater than 25000 nM and the TGI [15] was greater than 25000 nM. It also gave a GI50 [16] greater than 25000 nM, a TGI [16] greater than 25000 nM and a GI50 [17] greater than 25000 nM. For the same compound, the TGI [17] was greater than 25000 nM, the GI50 [18] was greater than 25000 nM and the TGI [18] was greater than 25000 nM. The GI50 [19] was greater than 25000 nM, the TGI [19] was greater than 25000 nM and the GI50 [20] was greater than 25000 nM. It also gave a TGI [20] greater than 25000 nM, a GI50 [21] greater than 25000 nM and a TGI [21] greater than 25000 nM. It also gave a GI50 [22] greater than 25000 nM, a TGI [22] greater than 25000 nM and a GI50 [23] greater than 25000 nM. The TGI [23] was greater than 25000 nM, the GI50 [24] was greater than 25000 nM and the TGI [24] was greater than 25000 nM. It also gave a GI50 [25] greater than 25000 nM, a TGI [25] greater than 25000 nM and a GI50 [26] greater than 25000 nM. It also gave a TGI [26] greater than 25000 nM, a GI50 [27] greater than 25000 nM and a TGI [27] greater than 25000 nM. It also gave a GI50 [28] greater than 25000 nM, a TGI [28] greater than 25000 nM and a GI50 [29] greater than 25000 nM. It also gave a TGI [29] greater than 25000 nM, a GI50 [30] greater than 25000 nM and a TGI [30] greater than 25000 nM. It also gave a GI50 [31] greater than 25000 nM, a TGI [31] greater than 25000 nM and a GI50 [32] greater than 25000 nM. The TGI [32] was greater than 25000 nM, the GI50 [33] was greater than 25000 nM and the TGI [33] was greater than 25000 nM. For the same compound, the GI50 [34] was greater than 25000 nM, the TGI [34] was greater than 25000 nM and the GI50 [35] was greater than 25000 nM. The TGI [35] was greater than 25000 nM, the GI50 [36] was greater than 25000 nM and the TGI [36] was greater than 25000 nM. For the same compound, the GI50 [37] was greater than 25000 nM, the TGI [37] was greater than 25000 nM and the GI50 [38] was greater than 25000 nM. For the same compound, the TGI [38] was greater than 25000 nM, the GI50 [39] was greater than 25000 nM and the TGI [39] was greater than 25000 nM. The GI50 [40] was greater than 25000 nM, the TGI [40] was greater than 25000 nM and the GI50 [41] was greater than 25000 nM. For the same compound, the TGI [41] was greater than 25000 nM, the GI50 [42] was greater than 25000 nM and the TGI [42] was greater than 25000 nM. The GI50 [43] was greater than 25000 nM, the TGI [43] was greater than 25000 nM and the GI50 [44] was greater than 25000 nM. It also gave a TGI [44] greater than 25000 nM, a GI50 [45] greater than 25000 nM and a TGI [45] greater than 25000 nM. The GI50 [46] was greater than 25000 nM, the TGI [46] was greater than 25000 nM and the GI50 [47] was greater than 25000 nM. It also gave a TGI [47] greater than 25000 nM, a GI50 [48] greater than 25000 nM and a TGI [48] greater than 25000 nM. The GI50 [49] was greater than 25000 nM, the TGI [49] was greater than 25000 nM and the GI50 [50] was greater than 25000 nM. The TGI [50] was greater than 25000 nM, the GI50 [51] was greater than 25000 nM and the TGI [51] was greater than 25000 nM. The GI50 [52] was greater than 25000 nM, the TGI [52] was greater than 25000 nM and the GI50 [53] was greater than 25000 nM. For the same compound, the TGI [53] was greater than 25000 nM, the GI50 [54] was greater than 25000 nM and the TGI [54] was greater than 25000 nM. It also gave a GI50 [55] greater than 25000 nM, a TGI [55] greater than 25000 nM and a GI50 [56] greater than 25000 nM. It also gave a TGI [56] greater than 25000 nM, a GI50 [57] greater than 25000 nM and a TGI [57] greater than 25000 nM.
With `CC(C)C[C@H](NC(=O)[C@H](Cc1ccccc1)NC(=O)c1cnccn1)B(O)O` the GI50 [1] was 1.16 nM, the TGI [1] was < 45.4 nM and 19.4 nM and the GI50 [2] was < 11.8 nM and 1.77 nM. For the same compound, the TGI [2] was 5.41 nM, the GI50 [3] was 1.03 nM and the TGI [3] was < 13.9 nM and 3.41 nM. For the same compound, the GI50 [4] was 3.22 nM, the TGI [4] was < 18.4 nM and 32.1 nM and the GI50 [5] was 2.96 nM. The GI50 [6] was 1.08 nM, the TGI [6] was < 16.1 nM and 3.28 nM and the GI50 [7] was < 10 nM and 1.4 nM. The TGI [7] was 14 nM and 4.11 nM, the GI50 [8] was 1.5 nM and the TGI [8] was 19.6 nM and 7.23 nM. The GI50 [9] was 2.29 nM, the TGI [9] was 36.7 nM and 8.12 nM and the GI50 [10] was 1.07 nM. For the same compound, the TGI [10] was 3.49 nM, the GI50 [11] was < 11.3 nM and 3.15 nM and the TGI [11] was 179 nM. For the same compound, the GI50 [12] was 2.6 nM, the TGI [12] was 66.7 nM and 31.2 nM and < 49.9 nM and the GI50 [13] was 1.49 nM. For the same compound, the TGI [13] was < 16.8 nM and 4.98 nM, the GI50 [14] was 1.04 nM and the GI50 [15] was 1.43 nM. It also gave a GI50 [16] of 1.66 nM, a GI50 [17] of 2.37 nM and a GI50 [18] of 2.45 nM. For the same compound, the TGI [18] was 381 nM and 96.7 nM and 411 nM, the GI50 [19] was 2.19 nM and the GI50 [20] was 0.833 nM. The TGI [20] was < 10 nM and 3.52 nM, the GI50 [21] was < 13.1 nM and 3.17 nM and the GI50 [22] was 0.748 nM. The TGI [22] was < 10 nM and 1.86 nM, the GI50 [23] was 1.19 nM and the TGI [23] was < 10 nM and 2.55 nM. For the same compound, the GI50 [24] was < 11.2 nM and 3.62 nM, the TGI [24] was 5020 nM and 615 nM and the GI50 [58] was < 17.5 nM and 4.19 nM. The TGI [58] was 2060 nM and 417 nM and 2330 nM, the GI50 [25] was 1.67 nM and the TGI [25] was < 10 nM and 4.11 nM. For the same compound, the GI50 [26] was 2.56 nM, the GI50 [27] was 1.64 nM and the TGI [27] was < 69.3 nM and 12.9 nM. For the same compound, the GI50 [28] was 1.19 nM, the TGI [28] was < 10 nM and 2.71 nM and the GI50 [29] was 13 nM and 3.85 nM. The TGI [29] was 137 nM and 102 nM and 150 nM, the GI50 [30] was 1.72 nM and the TGI [30] was < 22.3 nM and 10.1 nM. For the same compound, the GI50 [31] was 61.3 nM, the GI50 [32] was 1.75 nM and the TGI [32] was 183 nM and 19.7 nM. The GI50 [33] was 18.7 nM and 8.5 nM, the GI50 [34] was 2.84 nM and the TGI [34] was 1310 nM and 217 nM. For the same compound, the GI50 [35] was < 10 nM and 1.92 nM, the GI50 [36] was < 10 nM and 1.04 nM and the GI50 [37] was 3.98 nM. The TGI [37] was greater than 100000 nM, the GI50 [38] was 1.21 nM and the GI50 [39] was 18.3 nM and 4.68 nM. The TGI [39] was 121 nM and 39.7 nM and 150 nM, the GI50 [41] was 0.597 nM and the GI50 [42] was 1.48 nM. The GI50 [43] was 2.15 nM, the GI50 [44] was 1.35 nM and the TGI [44] was < 12.9 nM and 4.13 nM. The GI50 [45] was 3.11 nM, the GI50 [46] was 1.81 nM and the GI50 [47] was 1.04 nM. The TGI [47] was < 12.4 nM and 2.38 nM, the GI50 [48] was < 10 nM and 0.89 nM and the TGI [48] was < 10 nM and 2.06 nM. The GI50 [49] was 1.93 nM, the TGI [49] was 22.8 nM and 17.9 nM and the GI50 [50] was 2.88 nM. For the same compound, the GI50 [51] was 12.5 nM and 3.64 nM, the TGI [51] was 197 nM and 95.2 nM and 106 nM and the GI50 [52] was 1.3 nM. The GI50 [53] was 17.5 nM and 4.27 nM, the GI50 [54] was 2.32 nM and the TGI [54] was 26.6 nM and 6.98 nM. The GI50 [55] was < 11.4 nM and 1.94 nM, the GI50 [56] was 1.43 nM and the TGI [56] was < 215 nM and 4.14 nM. For the same compound, the GI50 [57] was 0.85 nM.
